Where a name gives a salt, the structure may show the parent alone.
Columns and labels:
HPK1 pSLP76 (Ser376) = assay: Cellular assay phospho-SLP-76 (Ser376); type: cell-based, human; conditions: SLP76 Ser376 phosphorylation after αCD3/αCD28 stimulation; Jurkat (human) or EL-4 (mouse) cells, table does not say which; read-out: HPK1 pSLP76 IC50
How it was run: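 Jurkat (human) and EL-4 (mouse) cells preincubated 60 min with compound, then stimulated with αCD3/αCD28 Dynabeads at 37 °C (Jurkat 15 min; EL-4 30 min). SLP76 Ser376 phosphorylation in lysate read by AlphaLISA SureFire (Jurkat) or HTRF (EL-4, 19 h); IC50 from 10-point dilutions.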

[1] = biological target: full-length human HPK1 (MAP4K1) (Homo sapiens (Human), UniProt Q92918); assay: HPK1 kinase assay (biochemical, ADP-Glo); conditions: GST-HPK1 3.2 nM, 10 μM ATP, MBP substrate, ADP-Glo; read-out: HPK1 enzymatic IC50
How it was run: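 GST-tagged full-length human HPK1 from Sf21 baculovirus cells (3.2 nM in enzyme mix; 50 mM HEPES pH 7.5, 10 mM MgCl2) was preincubated 15 min at RT with compound. Reaction was started with Start-Mix (10 μM ATP, 3.235 μM MBP) and run 120 min. ADP was read by ADP-Glo luminescence; IC50 came from 10-point % inhibition.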

Sequence of full-length human HPK1 (MAP4K1) (Q92918 whole entry): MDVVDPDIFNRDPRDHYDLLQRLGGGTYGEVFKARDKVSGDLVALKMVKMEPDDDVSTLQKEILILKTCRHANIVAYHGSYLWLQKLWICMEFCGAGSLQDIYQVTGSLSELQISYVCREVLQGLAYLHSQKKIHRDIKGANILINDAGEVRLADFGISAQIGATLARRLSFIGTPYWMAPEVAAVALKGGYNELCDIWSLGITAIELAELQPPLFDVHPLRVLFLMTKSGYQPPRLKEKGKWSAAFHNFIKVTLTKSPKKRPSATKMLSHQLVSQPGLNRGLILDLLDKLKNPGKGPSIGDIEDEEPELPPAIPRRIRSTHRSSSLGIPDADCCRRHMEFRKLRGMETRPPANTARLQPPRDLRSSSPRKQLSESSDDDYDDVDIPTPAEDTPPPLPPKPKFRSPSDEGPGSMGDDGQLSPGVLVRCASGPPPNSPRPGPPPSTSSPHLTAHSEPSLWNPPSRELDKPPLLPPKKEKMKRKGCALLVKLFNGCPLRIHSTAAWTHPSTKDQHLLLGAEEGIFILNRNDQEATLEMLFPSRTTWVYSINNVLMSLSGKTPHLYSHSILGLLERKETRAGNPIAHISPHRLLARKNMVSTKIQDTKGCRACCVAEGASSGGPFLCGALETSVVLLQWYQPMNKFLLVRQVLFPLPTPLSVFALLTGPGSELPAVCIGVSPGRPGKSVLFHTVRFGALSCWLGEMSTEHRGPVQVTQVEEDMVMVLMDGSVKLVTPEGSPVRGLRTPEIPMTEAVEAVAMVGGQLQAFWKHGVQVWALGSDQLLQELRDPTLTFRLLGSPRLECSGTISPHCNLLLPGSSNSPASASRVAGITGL

Row | SMILES | IC50 (HPK1 pSLP76 (Ser376)) [nM] | IC50 [1] [nM]
1 | C[C@@H]1CN(Cc2ccc(-c3cc(C(N)=O)c4ncnc(N[C@H]5CCCNC5)c4n3)cc2)CCO1 [Example 69, 6-(4-[[(2R)-2-methylmorpholin-4-yl]methyl]phenyl)-4-[(3S)-piperidin-3-ylamino]pyrido[3,2-d]pyrimidine-8-carboxamide dihydrochloride] | > 1000 | < 100
2 | COc1ccccc1-c1cc(C(N)=O)c2ncnc(N[C@H]3CCCNC3)c2n1 [Example 72, 6-(2-methoxyphenyl)-4-[(3S)-piperidin-3-ylamino]pyrido[3,2-d]pyrimidine-8-carboxamide] | > 1000 | < 100
3 | CC1(N2CCOCC2)CC=C(c2cc(C(N)=O)c3ncnc(N[C@H]4CCCNC4)c3n2)CC1 (stereo partly drawn) [Example 74, 6-[4-methyl-4-(morpholin-4-yl)cyclohex-1-en-1-yl]-4-{[(3S)-piperidin-3-yl]amino}pyrido[3,2-d]pyrimidine-8-carboxamide] | > 1000 | < 100
4 | NC(=O)c1cc(C2=CCN(C(=O)C3CC3)CC2)nc2c(N[C@H]3CCCNC3)ncnc12 [Example 75, 6-(1-cyclopropanecarbonyl-1,2,3,6-tetrahydropyridin-4-yl)-4-{[(3S)-piperidin-3-yl]amino}pyrido[3,2-d]pyrimidine-8-carboxamide] | 500 to 1000 | < 100
5 | Cc1nn(C)cc1-c1cc(C(N)=O)c2ncnc(N[C@H]3CCCNC3)c2n1 [Example 79, 6-(1,3-dimethyl-1H-pyrazol-4-yl)-4-{[(3S)-piperidin-3-yl]amino}pyrido[3,2-d]pyrimidine-8-carboxamide] | > 1000 | < 100
6 | NC(=O)c1cc(-c2cnn(CC(F)F)c2)nc2c(N[C@H]3CCCNC3)ncnc12 [Example 81, 6-[1-(2,2-difluoroethyl)-1H-pyrazol-4-yl]-4-{[(3S)-piperidin-3-yl]amino}pyrido[3,2-d]pyrimidine-8-carboxamide] | > 1000 | < 100
7 | NC(=O)c1cc(-c2ccc(C3(O)COC3)cc2)nc2c(N[C@H]3CCCNC3)ncnc12 [Example 82, 6-[4-(3-hydroxyoxetan-3-yl)phenyl]-4-{[(3S)-piperidin-3-yl]amino}pyrido[3,2-d]pyrimidine-8-carboxamide] | 500 to 1000 | < 100
8 | N#Cc1ccccc1-c1cc(C(N)=O)c2ncnc(N[C@H]3CCCNC3)c2n1 [Example 86, 6-(2-cyanophenyl)-4-{[(3S)-piperidin-3-yl]amino}pyrido[3,2-d]pyrimidine-8-carboxamide] | 500 to 1000 | < 100

Continued, values first:

Row | IC50 (HPK1 pSLP76 (Ser376)) [nM] | IC50 [1] [nM] | SMILES
9 | 500 to 1000 | < 100 | C[C@@H]1CN(Cc2ccc(-c3cc(C(N)=O)c4ncnc(N[C@H]5CCCNC5)c4n3)cc2)C[C@@H](C)O1 [Example 68, 6-(4-[[(2R,6R)-2,6-dimethylmorpholin-4-yl]methyl]phenyl)-4-[(3S)-piperidin-3-ylamino]pyrido[3,2-d]pyrimidine-8-carboxamide]
10 | 500 to 1000 | < 100 | NC(=O)c1cc(-c2ccc(CN3CCOC(F)(F)C3)cc2)nc2c(N[C@H]3CCCNC3)ncnc12 [Example 70, 6-[4-[(2,2-difluoromorpholin-4-yl)methyl]phenyl]-4-[(3S)-piperidin-3-ylamino]pyrido[3,2-d]pyrimidine-8-carboxamide]
11 | < 500 | < 100 | NC(=O)c1cc(-c2ccc(F)cc2)nc2c(N[C@H]3CCCNC3)ncnc12 [Example 76, 6-(4-fluorophenyl)-4-{[(3S)-piperidin-3-yl]amino}pyrido[3,2-d]pyrimidine-8-carboxamide]
12 | < 500 | < 100 | Cn1cc(-c2cc(C(N)=O)c3ncnc(N[C@H]4CCCNC4)c3n2)cc1C#N [Example 83, 6-(5-cyano-1-methyl-1H-pyrrol-3-yl)-4-{[(3S)-piperidin-3-yl]amino}pyrido[3,2-d]pyrimidine-8-carboxamide]
